25 compounds from US7863332B2, “Biaromatic compound activators of PPARγ receptors and cosmetic/pharmaceutical compositions comprised thereof” (Galderma Research & Development, priority 2004, dated 2011) can be followed below.

For data set [1], the target named is T1, PPARα (Homo sapiens, UniProt Q07869).
T1 sequence (Q07869 202-468 limits assumed): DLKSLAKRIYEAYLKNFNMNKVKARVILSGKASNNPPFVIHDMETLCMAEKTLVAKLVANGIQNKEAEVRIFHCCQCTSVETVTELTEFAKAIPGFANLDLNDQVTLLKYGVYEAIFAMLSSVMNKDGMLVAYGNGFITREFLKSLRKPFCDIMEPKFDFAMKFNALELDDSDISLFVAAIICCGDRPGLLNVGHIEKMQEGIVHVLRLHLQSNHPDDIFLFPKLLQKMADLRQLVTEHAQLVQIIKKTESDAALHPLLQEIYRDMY
Put plainly: Cross-curve PPAR transactivation test (PPARα). Conditions: HeLN cells, Gal-hPPARα, luciferase reporter; cross curves against reference agonist, Schild regression; n.a means not active; read-out: PPAR alpha Kd app. The data set is classed as cell-based. As for the experimental part: (§1) The activation of PPAR receptors with an agonist (activator) in HeLN cells leads to the expression of a reporter gene, luciferase, which, in the presence of a substrate, generates light. The modulation of the PPAR receptors is measured by quantifying the luminescence produced after incubating the cells in the presence of a reference agonist. The ligands displace the agonist from its site. The measurement of the activity is performed by quantifying the light produced. This measurement makes it possible to determine the modulatory activity of the compounds according to the invention by determining the constant that is the affinity of the molecule for the PPAR receptor. Since this value can fluctuate depending on the basal activity and the expression of the receptor, it is referred to as Kd apparent (KdApp in nM).
(§2) To determine this constant, “cross curves” of the test product against a reference agonist are produced in a 96-well plate: 10 concentrations of the test product plus a concentration 0 are arranged in a line, and 7 concentrations of the agonist plus a concentration 0 are arranged in a column. This is 88 measurement points for 1 product and 1 receptor. The remaining 8 wells are used for repeatability controls.
(§3) Measurements are also taken for total agonist controls with the same products.
(§4) The HeLN cell lines used are stable transfectants containing the plasmids ERE-βGlob-Luc-SV-Neo (reporter gene) and PPAR (α, δ, γ) Gal-hPPAR. These cells are inoculated into 96-well plates at a rate of 10 000 cells per well in 100 μl of DMEM medium without phenol red and supplemented with 10% of defatted calf serum. The plates are then incubated at 37° C. and 7% CO2 for 16 hours.
(§5) The various dilutions of the test products and of the reference ligand are added at a rate of 5 μl per well. The plates are then incubated for 18 hours at 37° C. and 7% CO2. The culture medium is removed by turning over and 100 μl of a 1:1 PBS/luciferin mixture are added to each well. After 5 minutes, the plates are read by the luminescence detector.
Background: Reporter assays use an easily measured gene product as a stand-in for the process of interest.

The target in data set [2] is T2, PPARγ (Homo sapiens, UniProt P37231).
T2 sequence (P37231 238-505 limits assumed): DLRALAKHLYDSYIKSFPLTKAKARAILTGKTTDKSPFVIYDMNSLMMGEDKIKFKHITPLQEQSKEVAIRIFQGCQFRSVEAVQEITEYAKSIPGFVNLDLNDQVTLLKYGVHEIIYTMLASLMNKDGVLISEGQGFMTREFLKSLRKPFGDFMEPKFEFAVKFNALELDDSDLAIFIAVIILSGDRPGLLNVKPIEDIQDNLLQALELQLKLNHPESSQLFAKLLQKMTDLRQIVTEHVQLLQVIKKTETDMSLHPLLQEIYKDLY
Put plainly: Cross-curve PPAR transactivation test (PPARγ). The data set is classed as cell-based. Conditions: HeLN cells, Gal-hPPARγ, luciferase reporter; cross curves against reference agonist, Schild regression; n.a means not active; read-out: PPAR gamma Kd app. As for the experimental part: as §1, §2, §3, §4, §5

Data set [3] addresses T3, PPARδ (Homo sapiens, UniProt Q03181).
T3 sequence (Q03181 171-441 limits assumed): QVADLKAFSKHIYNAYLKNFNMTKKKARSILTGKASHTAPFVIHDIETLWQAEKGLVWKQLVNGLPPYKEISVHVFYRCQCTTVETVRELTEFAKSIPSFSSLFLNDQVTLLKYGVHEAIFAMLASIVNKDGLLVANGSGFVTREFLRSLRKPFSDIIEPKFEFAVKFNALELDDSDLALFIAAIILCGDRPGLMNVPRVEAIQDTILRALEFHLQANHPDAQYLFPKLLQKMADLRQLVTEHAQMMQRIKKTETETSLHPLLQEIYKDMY
Put plainly: Cross-curve PPAR transactivation test (PPARδ). The note with it: HeLN cells, Gal-hPPARδ, luciferase reporter; cross curves against reference agonist, Schild regression; n.a means not active; read-out: PPARs delta Kd app. It is filed as cell-based. The procedure:
as §1, §2, §3, §4, §5

One may read the melting point as the temperature of the solid-liquid transition.

Compound `CCCCCCCNC(=O)N(C)c1cccc(-c2ccc(CCC(=O)O)cc2F)c1` [Example 10, 3-[2-fluoro-3′-(3-heptyl-1-methylureido)biphenyl-4-yl]propanoic acid] returned a melting point of 80 to 82 °C.
Turning to `CCCCc1ccc(NC(=O)N(C)c2cccc(-c3ccc(CCC(=O)O)cc3)c2)cc1` [Example 14, 3-{3′-[3-(4-butylphenyl)-1-methylureido]biphenyl-4-yl}propanoic acid], the Kd was 500 nM in data set [1], 2 nM in data set [2] and 500 nM in data set [3].
As for `CCCCCCCNC(=O)N(C)c1cccc(-c2ccc(CCC(=O)O)cc2OCCC)c1` [Example 25, 3-[3′-(3-heptyl-1-methylureido)-2-propoxybiphenyl-4-yl]propanoic acid], the Kd was found to be 500 nM in data set [1], 0.25 nM in data set [2] and 120 nM in data set [3].
For the compound `CCCCCNC(=O)N(C)c1cccc(-c2ccc(CCC(=O)O)cc2OCCCCC)c1` [Example 46, 3-[3′-(1-methyl-3-pentylureido)-2-pentyloxybiphenyl-4-yl]propanoic acid], the Kd worked out at 30 nM in data set [1] and 0.25 nM in data set [2].
As for `CCCCCCCNC(=O)N(C)c1cccc(-c2ccc(CCC(=O)O)cc2OCc2cccc(F)c2)c1` [Example 43, 3-[2-(3-fluorobenzyloxy)-3′-(3-heptyl-1-methylureido)biphenyl-4-yl]propanoic acid], the values for the Kd in data set [1] and in data set [2] were 2000 nM and 2 nM, respectively.
The like results for `CCCCCCCNC(=O)N(C)c1cccc(-c2ccc(CCC(=O)O)cc2OCCOCC)c1` [Example 47, 3-[2-(2-ethoxyethoxy)-3′-(3-heptyl-1-methylureido)biphenyl-4-yl]propanoic acid] were, in that order, 1000 nM and 2 nM.
Regarding `CCCCOc1ccc(NC(=O)N(C)c2cccc(-c3ccc(CCC(=O)O)cc3)c2)cc1` [Example 33, 3-{3′-[3-(4-butoxyphenyl)-1-methylureido]biphenyl-4-yl}propanoic acid], the Kd in data set [2] was found to be 4 nM; in data set [3], 1000 nM.
For the compound `CCCCCCCNC(=O)N(C)c1cccc(-c2ccc(CCC(=O)O)cc2OCC2CC2)c1` [Example 35, 3-[2-cyclopropylmethoxy-3′-(3-heptyl-1-methylureido)biphenyl-4-yl]propanoic acid], the results for the Kd in data set [2] and in data set [3] were 1 nM and 1000 nM, respectively.
Regarding `CCCCCCCNC(=O)N(C)c1cccc(-c2ccc(/C=C/C(=O)O)cc2OCc2ccccc2)c1` [Example 24, (E)-3-[2-benzyloxy-3′-(3-heptyl-1-methylureido)biphenyl-4-yl]acrylic acid], the Kd in data set [1] amounted to 500 nM; in data set [2], 4 nM; in data set [3], 2000 nM.
With `CCCCCNC(=O)N(C)c1cccc(-c2ccc(CCC(=O)O)cc2OCCOCC)c1` [Example 49, 3-[2-(2-ethoxyethoxy)-3′-(1-methyl-3-pentylureido)biphenyl-4-yl]propanoic acid], the figures for the Kd in data set [1] and in data set [2] were 2000 nM and 2 nM, respectively.
On to `CCCCCCCNC(=O)N(C)c1cccc(-c2ccc(CCC(=O)O)cc2OCCCCO)c1` [Example 40, 3-[3′-(3-heptyl-1-methylureido)-2-(4-hydroxybutoxy)biphenyl-4-yl]propanoic acid], for which the Kd stood at 8000 nM in data set [1] and 1 nM in data set [2].
Regarding `CCCCCCNC(=O)N(C)c1cccc(-c2ccc(CCC(=O)O)cc2)c1` [Example 11, 3-[3′-(3-hexyl-1-methylureido)biphenyl-4-yl]propanoic acid], the melting point lay within 119 to 120 °C.
Consider `CCCCOc1ccc(NC(=O)N(CC)c2cccc(-c3ccc(CCC(=O)O)cc3)c2)cc1` [Example 34, 3-{3′-[3-(4-butoxyphenyl)-1-ethylureido]biphenyl-4-yl}propanoic acid], for which the Kd in data set [1] was 500 nM; in data set [2], 2 nM; in data set [3], 8 nM.
For `CCCCCCCNC(=S)N(C)c1cccc(-c2ccc(CCC(=O)O)cc2)c1` [Example 8, 3-[3′-(3-heptyl-1-methylthioureido)biphenyl-4-yl]propanoic acid], the melting point lay within 95 to 96 °C.
With `CCCCCCCNC(=O)N(C)c1cccc(-c2ccc(CCC(=O)O)cc2OCCOC)c1` [Example 15, 3-[3′-(3-heptyl-1-methylureido)-2-(2-methoxyethoxy)biphenyl-4-yl]propanoic acid], the Kd turned out to be 2000 nM in data set [1], 2 nM in data set [2] and 2000 nM in data set [3].
As to `CCCCCCCNC(=O)N(C)c1cccc(-c2ccc(CCC(=O)O)cc2OCCCCl)c1` [Example 17, 3-[2-(3-chloropropoxy)-3′-(3-heptyl-1-methylureido)biphenyl-4-yl]propanoic acid], the Kd in data set [1] was determined as 500 nM; in data set [2], 1 nM.
As for `CCCCCCCNC(=O)N(C)c1cccc(-c2ccc(/C=C/C(=O)O)cc2F)c1` [Example 9, (E)-3-[2-fluoro-3′-(3-heptyl-1-methylureido)biphenyl-4-yl]acrylic acid], the melting point fell in the range of 130 to 131 °C.
Compound `CN(C(=O)Nc1ccc2ccccc2c1)c1cccc(-c2ccc(CCC(=O)O)cc2)c1` [Example 7, 3-[3′-(1-methyl-3-naphthalen-2-ylureido)biphenyl-4-yl]propanoic acid] had a melting point of 170 to 171 °C.
Turning to `CCCCCCCNC(=O)N(C)c1cccc(-c2ccc(CCC(=O)O)cc2OCc2ccccc2)c1` [Example 42, 3-[2-benzyloxy-3′-(3-heptyl-1-methylureido)biphenyl-4-yl]propanoic acid], the Kd in data set [1] was 4000 nM; in data set [2], 1 nM.
Consider `CCCCCCCNC(=O)N(C)c1cccc(-c2ccc(CCC(=O)O)cc2OC)c1` [Example 18, 3-[3′-(3-heptyl-1-methylureido)-2-methoxybiphenyl-4-yl]propanoic acid], for which the Kd in data set [1] is 2000 nM; in data set [2], 4 nM; in data set [3] it was 250 nM.
As to `CCCCCCCNC(=O)N(C)c1cccc(-c2ccc(CCC(=O)O)c(F)c2)c1` [Example 3, 3-[3-fluoro-3′-(3-heptyl-1-methylureido)biphenyl-4-yl]propanoic acid], the Kd in data set [1] worked out at 2000 nM; in data set [2], 4 nM; in data set [3] it was 2000 nM.
Take `CCCCCCCNC(=O)N(C)c1cccc(-c2ccc(CCC(=O)O)cc2OCCCCC)c1` [Example 45, 3-[3′-(3-heptyl-1-methylureido)-2-pentyloxybiphenyl-4-yl]propanoic acid]: the Kd turned out to be 120 nM in data set [1] and 0.25 nM in data set [2].
Turning to `CCCCOc1cc(CCC(=O)O)ccc1-c1cccc(N(C)C(=O)Nc2ccccc2)c1` [Example 48, 3-[2-butoxy-3′-(1-methyl-3-phenylureido)biphenyl-4-yl]propanoic acid], the Kd in data set [1] worked out at 2000 nM; in data set [2], 2 nM.
In the case of `CCCCCCCNC(=O)N(C)c1cccc(-c2ccc(CCC(=O)O)cc2OCCC(F)(F)F)c1` [Example 37, 3-[3′-(3-heptyl-1-methylureido)-2-(3,3,3-trifluoropropoxy)biphenyl-4-yl]propanoic acid], the Kd in data set [1] was found to be 250 nM; in data set [2], 2 nM; in data set [3], 2000 nM.
Take `CCCCCCCNC(=O)N(C)c1cccc(-c2ccc(CCC(=O)NO)cc2)c1` [Example 6, 3-[3′-(3-heptyl-1-methylureido)biphenyl-4-yl]-N-hydroxypropionamide]: the melting point was 100 to 101 °C.
